Experimental data taken from PubChem BioAssay (NCI).
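These data come from cells grown in 96-well plates and exposed to compound for 48 hours at five concentrations. The concentration for 50% growth inhibition is given as GI50. At the TGI there is no net growth.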

Key:
Assay in all cases: DTP human tumour cell line panel, 48 h
[1] = tested on: A498 renal
[2] = tested on: HCT-116 colon
[3] = tested on: IGROV1 ovarian
[4] = tested on: MOLT-4 leukemia
[5] = tested on: OVCAR-5 ovarian
[6] = tested on: SK-MEL-2 melanoma
[7] = tested on: SK-MEL-5 melanoma
[8] = tested on: U251 CNS

| Structure (SMILES) | GI50 [1] [µM] | TGI [1] [µM] | GI50 [2] [nM] | TGI [2] [µM] | GI50 [3] [µM] | TGI [3] [µM] | GI50 [4] [µM] | TGI [4] [µM] | GI50 [5] [µM] | TGI [5] [µM] | GI50 [6] [µM] | TGI [6] [µM] | GI50 [7] [nM] | TGI [7] [µM] | GI50 [8] [nM] | TGI [8] [µM] |
| --- | --- | --- | --- | --- | --- | --- | --- | --- | --- | --- | --- | --- | --- | --- | --- | --- |
| Nc1ccccc1C#C/C=C\C#Cc1ccccc1OC(F)(F)F | 3.93 | 14 | 4450 | 16.7 | 5.64 | 39.9 | 2.91 | 24.1 | 13 | 44.1 | 6.38 | 29 | 4000 | 15 | 5440 | 22.2 |
| COc1cc2c(c(OC)c1OC)-c1ccc(NNC(N)=S)c(=O)cc1[C@@H](NC(C)=O)CC2 | 0.93 | > 21.1 | 348 | > 32.6 | 1.18 | > 100 | 0.568 | > 100 | 7.21 | > 100 |  | > 100 | 345 | 2.52 | 415 | > 100 |
| Nc1c(C(=O)c2cccc(CCS(N)(=O)=O)c2)cnn1-c1ccc(F)cc1 | > 25 | > 25 | > 25000 | > 25 | > 25 | > 25 | > 25 | > 25 | > 25 | > 25 | > 25 | > 25 | > 16700 | > 25 | > 25000 | > 25 |
| Cc1ccc(NC(=O)Nc2ccc(-c3cccnc3)cc2N2CCC(CO)CC2)cc1 |  |  | 1780 | 11.4 | 8.44 | > 100 | 3.02 | > 100 | 3.64 | > 100 | 2.24 | 8.38 | 1680 | 3.27 | 2020 | 6.81 |
| CCOC1Oc2ccccc2C(=O)/C1=C/Nc1ccc(C(C)=O)cc1 (stereo unspecified) |  |  | 22800 | > 100 | 19.5 | > 100 | 15.8 | 53.3 | 19.5 | 48.3 | 40.1 | > 100 | 19100 | 43 | 23900 | 67.5 |
| COc1cccc(-c2cc(-c3cccc(NS(C)(=O)=O)c3)nc(N)c2C#N)c1O | 0.0999 | 35 | 78.3 | > 100 | 0.0577 | > 86.3 | 0.349 | > 100 | 1.08 | > 100 | 0.132 | > 100 | 74.7 | 3.93 | 127 | > 100 |
| C=C(C)C(OC)C(O)CC1(C)CC(O)CC(C)(C2CCC3OC(C4(C)CCC(Br)C(C)(C)O4)CCC3(C)O2)O1 (stereo unspecified) | 16.5 | 31.1 | 20600 | 51.7 | 24 | > 57.1 | 13.5 | 29.4 | 20.5 | 38.7 | 18.1 | 36.5 | 13200 | 28.4 | 25500 | > 61.9 |
| COC1/C=C/OC2(C)Oc3c(C)c(O)c4c(O)c(c(/C=N/Nc5ccc([N+](=O)[O-])cc5[N+](=O)[O-])c(O)c4c3C2=O)NC(=O)C(C)=C/C=C/C(C)C(O)C(C)C(O)C(C)C(OC(C)=O)C1C (stereo unspecified) | 6.87 | 14 | 955 | 1.9 | 1.87 | > 50 |  |  | 3.59 | 11.6 |  |  | 1290 | 3.75 | 1300 | 3.55 |
| CC1CCc2nc[nH]c(=O)c21 (stereo unspecified) | > 100 | > 100 | > 100000 | > 100 | > 100 | > 100 | > 100 | > 100 | > 100 | > 100 | > 100 | > 100 | > 100000 | > 100 |  |  |
| Cc1cc(N(CCC#N)CCC#N)ccc1N=Nc1ccc(S(N)(=O)=O)cc1 |  | > 100 |  |  |  | > 100 |  | > 100 |  | > 100 |  | > 100 |  | > 100 |  | > 100 |
| Cn1cc(C2=C(c3c4n(c5ccccc35)CCCCC4)C(=O)NC2=O)c2ccccc21 | 1.05 | 19.4 | 4210 | > 25 | 3.55 | > 25 | 7.04 | > 25 | > 19.5 | > 25 | 2.12 | > 18.8 | 2660 | 13.1 | 6610 | > 25 |
| Nc1nc(-n2c(-c3ccccc3)nc3c(Br)cc(Br)cc3c2=O)nnc1-c1cccc(Cl)c1Cl | 15.4 | 56.5 | 2430 | 7.06 | 12.9 | 45.9 | 25.4 | > 100 | 6.22 | 50.9 | 83.8 | > 100 | 4650 | 28.3 | 6870 | 27.1 |
| CN1CCCCC1CCN1c2ccccc2Sc2ccc(Cl)cc21 (stereo unspecified) | 2.7 | 10.8 | 2570 | 6.72 | 3.24 | 10.6 | 3.2 | 10.2 | 3.65 | 14 | 3.06 | 8.97 | 1700 | 3.25 | 2590 | 6.76 |
| COc1ccc2c(c1)sc1nc(-c3ccccc3)c(-c3cccc4ccccc34)n12 | 0.601 | > 30 | 615 | > 100 | 2.07 | > 100 | 0.774 | > 100 | 2.07 | > 100 | 1.67 | > 100 | 233 | 0.856 | 447 | > 100 |
| C=CCO[C@H]1CO[C@H]2[C@@H]1OC[C@@H]2Oc1ccc(Nc2ccnc(Nc3ccc(O[C@H]4CO[C@H]5[C@@H]4OC[C@@H]5OCC=C)c(Cl)c3)n2)cc1Cl |  |  | 1820 | 3.44 | 1.79 | 3.54 |  |  | 1.83 | 3.29 | 2.29 | 5.31 | 1460 | 2.8 | 1850 | 3.83 |
